Test results as given in the supplement of paper PMC10307832.

Key:
Assay in all cases: relative viability (nuclei count vs DMSO), 5 days (fraction); higher = more cells survive
Bexarotene + Linsitinib = compound: C=C(c1ccc(C(=O)O)cc1)c1cc2c(cc1C)C(C)(C)CCC2(C)C [Bexarotene] + C[C@]1(O)C[C@@H](c2nc(-c3ccc4ccc(-c5ccccc5)nc4c3)c3c(N)nccn32)C1 [Linsitinib] (partner 1 µM)
In short: (§1)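 Values are medians from duplicate plates. Each reflects relative viability, defined as the nuclei count of treated wells over that of vehicle wells. Lung cancer cell lines in 1536-well plates were pin-tool dosed one day after seeding with one drug alone or with a fixed anchor-drug dose plus five library-drug doses (not always all listed) in √10 steps, then fixed, stained and imaged at 4× after 5 days.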

Bexarotene + Foretinib = compound: C=C(c1ccc(C(=O)O)cc1)c1cc2c(cc1C)C(C)(C)CCC2(C)C [Bexarotene] + COc1cc2c(Oc3ccc(NC(=O)C4(C(=O)Nc5ccc(F)cc5)CC4)cc3F)ccnc2cc1OCCCN1CCOCC1 [Foretinib] (partner 0.25 µM)
In short: as §1

Bexarotene + Luminespib = compound: C=C(c1ccc(C(=O)O)cc1)c1cc2c(cc1C)C(C)(C)CCC2(C)C [Bexarotene] + CCNC(=O)c1noc(-c2cc(C(C)C)c(O)cc2O)c1-c1ccc(CN2CCOCC2)cc1 [Luminespib] (partner 0.01 µM)
In short: as §1

Bexarotene + Navitoclax = compound: C=C(c1ccc(C(=O)O)cc1)c1cc2c(cc1C)C(C)(C)CCC2(C)C [Bexarotene] + CC1(C)CCC(c2ccc(Cl)cc2)=C(CN2CCN(c3ccc(C(=O)NS(=O)(=O)c4ccc(N[C@H](CCN5CCOCC5)CSc5ccccc5)c(S(=O)(=O)C(F)(F)F)c4)cc3)CC2)C1 [Navitoclax] (partner 0.5 µM)
In short: as §1

| Cell Line | relative viability (Bexarotene + Linsitinib; first compound 0.08 µM) | relative viability (Bexarotene + Linsitinib; first compound 0.253 µM) | relative viability (Bexarotene + Linsitinib; first compound 0.8 µM) | relative viability (Bexarotene + Linsitinib; first compound 2.53 µM) | relative viability (Bexarotene + Linsitinib; first compound 8 µM) | relative viability (Bexarotene + Foretinib; first compound 0.08 µM) | relative viability (Bexarotene + Foretinib; first compound 0.253 µM) | relative viability (Bexarotene + Foretinib; first compound 0.8 µM) | relative viability (Bexarotene + Foretinib; first compound 2.53 µM) | relative viability (Bexarotene + Foretinib; first compound 8 µM) | relative viability (Bexarotene + Luminespib; first compound 0.08 µM) | relative viability (Bexarotene + Luminespib; first compound 0.253 µM) | relative viability (Bexarotene + Luminespib; first compound 0.8 µM) | relative viability (Bexarotene + Luminespib; first compound 2.53 µM) | relative viability (Bexarotene + Luminespib; first compound 8 µM) | relative viability (Bexarotene + Navitoclax; first compound 0.08 µM) | relative viability (Bexarotene + Navitoclax; first compound 0.253 µM) | relative viability (Bexarotene + Navitoclax; first compound 0.8 µM) | relative viability (Bexarotene + Navitoclax; first compound 2.53 µM) | relative viability (Bexarotene + Navitoclax; first compound 8 µM) |
| --- | --- | --- | --- | --- | --- | --- | --- | --- | --- | --- | --- | --- | --- | --- | --- | --- | --- | --- | --- | --- |
| NCI-H358 | 0.874 | 0.699 | 0.568 | 0.778 | 0.643 | 0.8 | 0.929 | 0.708 | 0.818 | 0.722 | 0.136 | 0.306 | 0.325 | 0.244 | 0.121 |  |  |  |  |  |
| NCI-H650 | 0.869 | 0.926 | 0.793 | 0.645 | 0.83 | 0.974 | 0.995 | 0.958 | 0.991 | 0.996 | 0.779 | 0.828 | 0.877 | 0.898 | 0.742 |  |  |  |  |  |
| NCI-H661 | 0.533 | 0.611 | 0.437 | 0.587 | 0.549 | 1.02 | 1.04 | 0.916 | 0.967 | 0.933 | 0.943 | 0.9 | 0.929 | 0.89 | 0.89 |  |  |  |  |  |
| NCI-H1299 | 1.02 | 1.01 | 0.991 | 1.02 | 0.94 | 1.06 | 1.18 | 1.05 | 1.1 | 1.08 |  |  |  |  |  | 1.05 | 1.07 | 1.06 | 1.09 | 1.04 |
| NCI-H1563 | 1.21 | 1.28 | 1.03 | 1.06 | 1.04 | 1.04 | 0.868 | 0.824 | 0.989 | 0.85 | 0.518 | 0.493 | 0.48 | 0.524 | 0.503 |  |  |  |  |  |
| NCI-H1650 |  |  |  |  |  | 1.13 | 0.988 | 1.09 | 1.18 | 1.11 | 0.195 | 0.183 | 0.219 | 0.225 | 0.231 | 1.37 | 1.4 | 1.34 | 1.21 | 1.3 |
| NCI-H1703 | 0.846 | 1.02 | 1.02 | 0.619 | 0.629 | 0.393 | 0.377 | 0.411 | 0.399 | 0.42 |  |  |  |  |  | 1.08 | 1.14 | 0.915 | 0.913 | 0.692 |
| NCI-H1792 | 0.437 | 0.586 | 0.259 | 0.422 | 0.342 |  |  |  |  |  | 0.519 | 0.406 | 0.49 | 0.361 | 0.286 | 0.588 | 0.515 | 0.489 | 0.297 | 0.579 |
| NCI-H2170 |  |  |  |  |  | 1.03 | 1.03 | 0.983 | 0.922 | 0.977 | 0.835 | 0.697 | 0.721 | 0.464 | 0.695 | 0.578 | 0.606 | 0.615 | 0.55 | 0.559 |
| NCI-H2342 |  |  |  |  |  | 1.01 | 1.02 | 1.09 | 1.12 | 1.05 | 0.709 | 0.675 | 0.747 | 0.873 | 0.661 |  |  |  |  |  |
| SW 900 |  |  |  |  |  | 0.991 | 0.881 | 0.901 | 1 | 0.862 | 0.167 | 0.17 | 0.148 | 0.189 | 0.163 |  |  |  |  |  |
